US20180008570A1, “METHOD OF TREATMENT OF A NEUROPATHIC PAIN” (CHAOYANG UNIVERSITY OF TECHNOLOGY, priority 2016, published 2018)
Entries after “also recorded” stand apart in the source; their conditions may differ. Where a name gives a salt, the structure may show the parent alone.

Assays:
[1] = system: male BALB/c mice with sciatic nerve transaction; assay: Von Frey test, withdrawal rate (reaction types II-IV) with 0.02 g and 0.07 g fibers in SNT neuropathic pain model; type: in vivo; details: 5 mg/kg i.p. daily; for withdrawal rate, von Frey fiber of 0.02 g, right hindpaw: 3, 7 and 14 days after surgery
Method: (§1) Lyophilized andrographolide powder is dissolved in DMSO and subsequently diluted to 2.86 mM (1 mg/mL) in 90% normal saline and 10% DMSO for storage. The mixture is injected into the peritoneum (body cavity) of each animal (intraperitoneal injection) based on 5 mg/kg animal weight, for example, a 30 g mouse is injected with 150 μL of saline containing 0.15 mg of andrographolide. NSAID drugs (Diclofenac sodium salt) may be purchased from Sigma (D6899), and diluted to 2.86 mM (0.91 mg/mL) in 90% saline and 10% DMSO for storage. The NSAID drugs is administered via intraperitoneal injection based on […] animal weight, for example, a 30 g mouse is injected with 165 μL of saline containing 0.15 mg of NSAID drugs. The number of molecules administered is less in andrographolide treated mouse than in NSAID drugs treated […]. These drugs are administered daily after surgery.
(§2) An operation for inducing the sciatic nerve transaction of BALB/c mice is processing as follows. After isoflurane anesthesia is applied to male BALB/c mice, which have about 8 weeks of age and have a weight of approximately 30 g, the skin of the right thigh is slit to expose the muscle. Then a blunt instrument is used to spread open the biceps femoris to expose the sciatic nerve and its three nerve branches, which are the sural nerve, common peroneal nerve and tibial nerve. Then a sterilized no. 4-0 chromium wire is used to tie the sciatic nerve, and approximately 2-4 mm of the ends of the common peroneal nerve and the tibial nerve are cut at a position near the tying position. Care is taken to avoid touching and stretching the sural nerve. The muscle and skin are closed in two separate layers. For sham surgery, the sciatic nerve is exposed as described above but no contact is made with the nerve. In this embodiment, the nerve is tied to a level such that there is slight sheathing of the nerve in order to avoid affecting the blood circulation in the area. The mice's behavior is observed after several days of rest.
(§3) The experiment is separated into the following groups that receive different treatments. In the normal group, no surgery is carried out and no andrographolide or NSAID drugs are administered to mice. In the pain group (OP-saline), saline is given to mice daily after surgery. In the control group (Op-NSAIDs), Diclofenac sodium salt is administered to mice daily after surgery. In the experimental group (Op-AP), an andrographolide compound is administered to mice daily after surgery. The means of administration is by intraperitoneal injection. The concentration of drugs for both the control group and the experimental group is 5 mg/kg animal weight, and the average animal weight is 30 g. For the model that uses an in vivo sciatic nerve transaction to simulate pathological pain, the mice behavior is tested on 3, 7, 14 days after surgery. The von Frey hair test is used to determinate the withdrawal threshold of the pathological pain.
Mechanical allodynia threshold at the lateral plantar surface of the hindpaw is assessed before nerve injury (as basal pain threshold) and then testing began on day 3 after surgery and continued for 7 and 14 days after surgery. Mechanical sensitivity is determined by measuring the withdrawal thresholds and reaction ratio to von Frey hairs (Stoelting, Wood Dale, Ill.) using the up and- down method (Dixon 1980) as described by Chaplan (Chaplan, Bach et al. 1994). […]

[2] = system: male BALB/c mice with sciatic nerve transaction; assay: Von Frey test, hindpaw withdrawal threshold in sciatic nerve transaction (SNT) neuropathic pain model; type: in vivo
Method: as §1, §2, §3
Mechanical allodynia threshold at the lateral plantar surface of the hindpaw is assessed before nerve injury (as basal pain threshold) and then testing began on day 3 after surgery and continued for 7 and 14 days after surgery. Mechanical sensitivity is determined by measuring the withdrawal thresholds and reaction ratio to von Frey hairs (Stoelting, Wood Dale, Ill.) using the up and- down method (Dixon 1980) as described by Chaplan (Chaplan, Bach et al. 1994). Animals were placed in a plastic cage with a wire net floor and were allowed to habituate 10-15 min before testing began. Animals were also habituated over a period of 2-3 consecutive days by recording a series of baseline measurements. The filaments were applied in ascending order, each 5 times at an interval of 2-3 s to the plantar surface of the hindpaw (Bourquin, Suveges et al. 2006) and the smallest filament eliciting a foot withdrawal response is considered the threshold stimulus. […]

[3] = system: glial fibrillary acidic protein (GFAP); assay: GFAP immunoreactivity in spinal cord astrocytes (L4-L6), immunohistochemical staining and quantification; type: in vivo, mice; details: 5 mg/kg i.p. daily; 7 days after surgery; compared to OP-saline group
Method: The following procedure is to ascertain the activity of astrocytic glial cells of the spinal cord. The mice are deeply anaesthetized with sevoflurane and perfused transcardially with saline followed by 0.1 M phosphate buffer solution containing 4% paraformaldehyde. The L4-L6 segment of spinal cord and left and right sciatic nerves are dissected out and post-fixed in a 4% parformaldehye solution at 4° C. overnight, and transferred to a series of solution of phosphate-buffered saline (PBS), graded ethanol/PBS, xylyne, graded xylyne/wax mixture, and finally embedded in wax. A rotary slicer for tissues is used to slice the sample to a transverse section with a thickness of 3 um, and warm water is used to spread and attach to the glass slice.
The wax sections are dewaxed in a series of xylene, graded xylene/ethanol mixture, or graded ethanol mixture, and finally incubation in PBS. […]
The immunoreactivity in each group is analyzed, and the intensity of chromogen staining or fluorescence is determined by photo form 4-5 independent animals. The image of the photo is analyzed using the same settings for quantitative comparison. All measured pixels in a specific area are analyzed by the ImageJ software on 0 (black) to 255 (white) scales. The total number of pixels having a value less than 50 in the photo is calculated and used to estimate the value of immunoreactivity in the area of interest.

Structure (SMILES) | withdrawal rate, von Frey fiber of 0.02 g, right hindpaw ([1]; compared with Op-NSAID group) | withdrawal rate, von Frey fiber of 0.02 g, right hindpaw ([1]; compared with Op-saline group) | withdrawal rate, fiber of 0.07 g, difference to Op-NSAID group ([1]; 7-14 days after surgery) | withdrawal rate, fiber of 0.07 g, difference to Op-NSAID group ([1]; 3 days after surgery) | withdrawal rate, fiber of 0.07 g ([1]; compared to Op-saline group) | right hindpaw withdrawal threshold ([2]; 5 mg/kg i.p. daily after surgery, 3, 7 and 14 days after surgery, compared to OP-saline group) | left hindpaw withdrawal threshold (contralateral, mirror pain) ([2]; 5 mg/kg i.p. daily, 3, 7 and 14 days after surgery, compared to saline group and NSAIDs group) | right hindpaw withdrawal threshold, effect compared with NSAID drugs ([2]; 5 mg/kg i.p. daily, 3 and 14 days after surgery, vs Op-NSAIDs (Diclofenac sodium salt)) | degree of relief from mechanical allodynia compared with same dose of NSAID drugs ([2]; 5 mg/kg i.p. daily, overall summary) | GFAP immunoreactivity of the astrocytes, L4-L6 spinal area [3] | left hindpaw withdrawal threshold (contralateral, mirror pain), persistence of higher threshold ([2]; 5 mg/kg i.p. daily, 7-14 days post-operation, compared to saline group) | left hindpaw withdrawal threshold (contralateral, mirror pain) ([2]; 5 mg/kg i.p. daily, 3 days after surgery, compared to saline group)
C=C1CC[C@@H]2[C@](C)(CO)[C@H](O)CC[C@@]2(C)[C@@H]1C/C=C1/C(=O)OC[C@H]1O [andrographolide] | very significant lower | very significant low | significant | not significant | reduced pain sensation | significantly increased; also recorded: significant increase | significantly increased | more significant effect | better | reduced trend |  | 
O=C(O)Cc1ccccc1Nc1c(Cl)cccc1Cl [NSAIDS, Diclofenac sodium salt, reference compound] |  |  |  |  |  |  |  |  |  |  | does not sustain | higher (although not significant)
